Test results published in patent US20110086848A1, “Agrochemical Compositions Comprising Alkyl Polypropylene Glycol Polyethylene Glycol” (Bayer CropScience AG, priority 2009, published 2011).
Read-outs that look alike come from different tables or passages of the source.

Experiment: physchem
Assay type: physicochemical
Procedure: In the context of the present invention, the term “water-soluble agrochemically active compound” is generally understood as meaning an insecticidally and/or acaricidally active compound (i.e. an active compound that controls insects and/or Acarina) which has (at 20° C.) a solubility of ≧10 mg/l in water. Compounds A and B meet this requirement.

Row | Compound | solubility (at 20° C., stated as meeting the definition of water-soluble, read-out: solubility in water) | solubility (20 °C, water)
1 | C/C(=N\C#N)N(Cc1ccc(Cl)nc1)CC(F)F [Compound A] | ≥ 10 µg/mL | –
2 | O=C1C=C(N(Cc2ccc(Cl)nc2)CC(F)F)CO1 [Compound B] | – | ≥ 10 µg/mL
